From ChEMBL document CHEMBL1128544, “2-[N'-(3-arylallylidene)hydrazino]adenosines showing A2a adenosine agonist properties and vasodilation activity” (J Med Chem, 1995)

What was measured:
[1] = target: T1, Adenosine receptor A1 (Rattus norvegicus, UniProt P25099); experiment: Activity at Adenosine A1 receptor of rat atria; format: functional
T1 sequence (P25099 whole entry): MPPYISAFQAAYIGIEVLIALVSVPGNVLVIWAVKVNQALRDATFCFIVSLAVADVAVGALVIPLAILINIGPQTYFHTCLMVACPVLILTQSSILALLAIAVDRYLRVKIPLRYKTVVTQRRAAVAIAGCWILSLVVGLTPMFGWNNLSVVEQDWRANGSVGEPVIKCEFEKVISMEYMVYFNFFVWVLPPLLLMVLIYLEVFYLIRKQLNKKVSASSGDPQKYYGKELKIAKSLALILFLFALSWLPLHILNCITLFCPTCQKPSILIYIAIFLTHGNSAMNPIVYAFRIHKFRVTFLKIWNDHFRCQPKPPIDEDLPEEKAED

[2] = target: T2, Adenosine receptor A2a (Rattus norvegicus, UniProt P30543)
T2 sequence (P30543 whole entry): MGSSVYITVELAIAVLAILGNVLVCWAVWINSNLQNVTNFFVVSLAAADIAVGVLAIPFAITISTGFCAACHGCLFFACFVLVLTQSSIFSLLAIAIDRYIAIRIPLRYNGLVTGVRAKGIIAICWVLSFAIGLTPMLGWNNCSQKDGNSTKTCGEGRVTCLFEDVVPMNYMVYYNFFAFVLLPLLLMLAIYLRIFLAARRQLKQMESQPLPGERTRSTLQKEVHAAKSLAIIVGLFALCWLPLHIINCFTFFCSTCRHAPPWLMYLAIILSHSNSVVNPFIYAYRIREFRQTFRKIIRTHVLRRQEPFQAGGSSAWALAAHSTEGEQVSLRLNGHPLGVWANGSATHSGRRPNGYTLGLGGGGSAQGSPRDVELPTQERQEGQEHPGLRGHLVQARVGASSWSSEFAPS

[3] = target: T1, Adenosine receptor A1
Description: Displacement of [3H]CHA from Adenosine A1 receptor of rat brain

[4] = target: T2, Adenosine receptor A2a; remark: listed apart in the source
Description: Functional activity at Adenosine A2A receptor as vasorelaxation of rat aorta

Structure (SMILES) | EC50 [1] [nM] | Ki [2] [nM] | Ki [3] [nM] | EC50 [4] [nM]
Nc1nc(N/N=C/C=C(c2ccccc2)c2ccccc2)nc2c1ncn2[C@@H]1O[C@H](CO)[C@@H](O)[C@H]1O | > 1860 | > 1000 | 64 | 704
CN(C)c1ccc(/C=C/C=N/Nc2nc(N)c3ncn([C@@H]4O[C@H](CO)[C@@H](O)[C@H]4O)c3n2)cc1 | 866 | 170 | 101 | 728
COc1ccccc1/C=C/C=N/Nc1nc(N)c2ncn([C@@H]3O[C@H](CO)[C@@H](O)[C@H]3O)c2n1 | 1970 | 384 | 264 | 529
Nc1nc(N/N=C/C=C/c2ccco2)nc2c1ncn2[C@@H]1O[C@H](CO)[C@@H](O)[C@H]1O | 4340 | 83 | 1670 | 800
Nc1nc(N/N=C/C=C/c2ccc([N+](=O)[O-])cc2)nc2c1ncn2[C@@H]1O[C@H](CO)[C@@H](O)[C@H]1O | > 10000 | 23 | 524 | 482
Nc1nc(N/N=C/C=C/c2ccccc2[N+](=O)[O-])nc2c1ncn2[C@@H]1O[C@H](CO)[C@@H](O)[C@H]1O | > 10000 | 54 | 935 | 638
COc1cc(/C=C/C=N/Nc2nc(N)c3ncn([C@@H]4O[C@H](CO)[C@@H](O)[C@H]4O)c3n2)ccc1O | 4890 | 27 | 545 | 281
COc1ccc(/C=C/C=N/Nc2nc(N)c3ncn([C@@H]4O[C@H](CO)[C@@H](O)[C@H]4O)c3n2)cc1 | > 10000 | 59 | 425 | 677
Nc1nc(N/N=C/C=C/c2ccccc2)nc2c1ncn2[C@@H]1O[C@H](CO)[C@@H](O)[C@H]1O | > 10000 | 38 | 1050 | 269
Nc1nc(N/N=C/c2ccco2)nc2c1ncn2[C@@H]1O[C@H](CO)[C@@H](O)[C@H]1O | > 10000 | 42 | 1850 | 195
Cc1ccc(/C=N/Nc2nc(N)c3ncn(C4O[C@H](CO)[C@@H](O)[C@H]4O)c3n2)cc1 (some centres undefined) | > 10000 | 29 | 1770 | 747
